PubChem BioAssay (NCI)
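Exposure lasted 48 hours, with cells grown in 96-well plates and compounds tested at five concentrations. GI50: concentration for 50% inhibition of growth. TGI is the concentration that stops growth completely.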

Assays:
Assay in all cases: NCI-60 cell line screen, 48 h
OVCAR-5 ovarian = test system: OVCAR-5 ovarian
SR leukemia = test system: SR leukemia
OVCAR-4 ovarian = test system: OVCAR-4 ovarian
SK-MEL-28 melanoma = test system: SK-MEL-28 melanoma
CAKI-1 renal = test system: CAKI-1 renal
NCI-H226 lung = test system: NCI-H226 lung
CCRF-CEM leukemia = test system: CCRF-CEM leukemia
786-0 renal = test system: 786-0 renal
SF-268 CNS = test system: SF-268 CNS
SF-295 CNS = test system: SF-295 CNS

Row | Structure (SMILES) | GI50 (OVCAR-5 ovarian) [µM] | TGI (OVCAR-5 ovarian) [µM] | GI50 (SR leukemia) [µM] | TGI (SR leukemia) [µM] | GI50 (OVCAR-4 ovarian) [µM] | TGI (OVCAR-4 ovarian) [µM] | GI50 (SK-MEL-28 melanoma) [µM] | TGI (SK-MEL-28 melanoma) [µM] | GI50 (CAKI-1 renal) [µM] | TGI (CAKI-1 renal) [µM] | GI50 (NCI-H226 lung) [µM] | TGI (NCI-H226 lung) [µM] | GI50 (CCRF-CEM leukemia) [µM] | TGI (CCRF-CEM leukemia) [µM] | GI50 (786-0 renal) [µM] | TGI (786-0 renal) [µM] | GI50 (SF-268 CNS) [µM] | TGI (SF-268 CNS) [µM] | GI50 (SF-295 CNS) [µM] | TGI (SF-295 CNS) [µM]
1 | COC1=C(C)C(=O)c2c(c(CCCl)c3n2CCC3O)C1=O (centres undefined) | 0.411 | 7.72 | 0.409 | > 26.8 | 9.36 | 39 | 0.811 | 3.85 | 1.22 | 3.95 | 0.764 | 5.5 | 4.6 | > 72.2 | 0.81 | 6.5 | 0.533 | 20 | 0.237 | 0.779
2 | COc1cccc(-c2ccc3c(c2)C2CCN(Cc4ccccc4)C3C2)c1 (centres undefined) | 11.8 | 29 | 3.95 | 13.8 | 5.71 | 58.2 | 13.4 | 65.9 | 10.8 | 40.1 | 11.1 | 30.4 | 9.67 | 56.1 | 13.9 | 36.1 | 12.3 | 34.4 | 4.08 | 20.9
3 | NC1=NC(c2ccc(Cl)cc2)N(c2ccc(S(N)(=O)=O)cc2)C(N)=N1 (centres undefined) | – | > 100 | – | > 100 | – | > 100 | – | > 100 | – | > 100 | – | > 100 | – | > 100 | – | > 100 | – | > 100 | – | > 100
4 | CCOc1cc(Br)c(C(C)NC(=O)c2cccc(OC)c2)cc1OCC (centres undefined) | 25.4 | > 100 | 3.26 | > 100 | 13.2 | > 93.5 | 12 | > 100 | 13.3 | > 100 | 21.4 | > 100 | 13.6 | > 100 | 20.4 | > 100 | 22.9 | > 100 | 8.3 | > 89.5
5 | CN(COC(=O)c1ccccc1)c1nc(N(C)COC(=O)c2ccccc2)nc(N(C)COC(=O)c2ccccc2)n1 | – | > 100 | – | > 100 | – | > 100 | – | > 100 | – | > 86.2 | – | > 100 | – | > 100 | – | 46.5 | – | > 88.1 | – | > 84.9
6 | O=[N+]([O-])c1ccc(C2CC(c3ccccc3Cl)=Nc3ccccc3S2=O)cc1 (centres undefined) | – | 18.6 | – | 6.64 | – | 6.12 | – | 13.8 | – | 4.33 | – | 17.6 | – | 4.37 | – | 3.31 | – | 30.5 | – | 15.3
7 | Cc1cc2cc3ccc(N(C)C)cc3nc2cc1N | 1.26 | 6.55 | 0.536 | 5.68 | 0.904 | 4.46 | 1.69 | 4.74 | 0.321 | 1.35 | 0.584 | 3.6 | 0.772 | 10.7 | 0.597 | 2.47 | 0.611 | 2.32 | 0.273 | 2.03
8 | Cc1cc(-c2ccccc2)nc(Nc2nc3ccccc3o2)n1 | – | > 100 | – | > 100 | – | > 100 | – | > 100 | – | > 100 | – | > 100 | – | > 100 | – | > 100 | – | > 100 | – | > 100
9 | CCN(Cc1ccc(F)cc1)c1ccc(CO)c(C)c1 | 0.856 | 4.46 | 20.3 | 58.1 | 2.46 | 14.3 | 13.3 | 28.6 | 3.28 | 25.5 | 0.291 | 1.12 | 19.7 | 59.2 | 13 | 29.5 | 24.9 | > 58.9 | 10.9 | 32.8
10 | N#CC1CCCCOCCOCCOCCOCCOCCCCCC1=O (centres undefined) | – | > 100 | – | > 100 | – | > 100 | – | > 100 | – | > 100 | – | > 100 | – | > 100 | – | > 100 | – | > 100 | – | > 100
11 | Cc1cc(S(=O)(=O)/N=C/N(C)C)c(SC(=O)c2ccc(Cl)cc2)cc1Cl | 48.6 | > 100 | 44.6 | > 100 | 60.1 | > 100 | 48.9 | > 100 | 36.6 | 92.3 | 27.8 | 87.2 | 32.4 | > 100 | 23.8 | 67.2 | 50.8 | > 100 | 50.9 | > 100
12 | CCCCCCNC(=O)Oc1ccc(/C(=C(/C)Cc2ccc(OC)cc2)c2ccc(OCCCN(C)C)cc2)cc1 | 15.7 | 29.8 | 2.79 | 11.9 | 13.1 | 26.7 | 14.5 | 28.1 | 14.5 | 27.8 | 19.4 | 36 | 16.3 | 33.8 | 13.1 | 28.4 | 15 | 30.5 | 14.7 | 28.3
13 | Cc1ccc(C(NC(=O)c2ccccc2)c2ccc3cccnc3c2O)cc1 (centres undefined) | 0.611 | > 70.4 | 0.197 | > 63.5 | 0.275 | > 52 | 0.492 | 41.6 | 0.328 | > 50.7 | 0.302 | 3.69 | 0.0783 | – | 0.301 | 1.81 | 0.266 | > 48.4 | 0.351 | 14.7
14 | O=[N+]([O-])c1ccc(Cl)c(C2CC(c3cccc4ccccc34)=Nc3ccccc3S2)c1 (centres undefined) | – | > 100 | – | 68.9 | – | > 100 | – | > 84.2 | – | > 100 | – | > 67.1 | – | > 64.7 | – | 30.4 | – | > 92.1 | – | > 94.1
15 | COC(=O)C1OC2(CCCC3CC32)O[C@H]1C(=O)OC (some centres undefined) | – | > 100 | – | > 100 | – | > 100 | – | > 100 | – | > 100 | – | > 100 | – | > 100 | – | > 100 | – | > 100 | – | > 100
